Assay [1] has as its target Serine/threonine-protein kinase PAK 6 (Homo sapiens) (UniProt Q9NQU5). Briefly: Inhibition of PAK6 (unknown origin) at 1 uM by selectscreen kinase profiling assay in presence of ATP.
Assay [2] deals with Glycogen synthase kinase-3 beta (Homo sapiens, UniProt P49841). In words: Inhibition of GSK3beta (unknown origin) at 1 uM by selectscreen kinase profiling assay in presence of ATP.
Assay [3] can be described thus: Antiproliferative activity against human ANGM-CSS cells assessed as inhibition of cell growth after 120 hrs by WST1 assay. The format is functional. (Formazan colour is commonly taken as a measure of viable cells.)
The target in assay [4] is Serine/threonine-protein kinase mTOR (Homo sapiens) (UniProt P42345). Briefly: Inhibition of mTOR (unknown origin) at 1 uM by selectscreen kinase profiling assay in presence of ATP.
Assay [5] concerns the target Serine/threonine-protein kinase Chk1 (Homo sapiens, UniProt O14757). Briefly: Inhibition of CHK1 (unknown origin) in presence of 10 uM ATP incubated for 1 hr by Z'Lyte assay.
The target in assay [6] is Casein kinase II subunit alpha' (Homo sapiens) (UniProt P19784). Briefly: Inhibition of CK2alpha2 (unknown origin) at 1 uM by selectscreen kinase profiling assay in presence of ATP.

For one compound, inhibition, GI50 and IC50 results are on record in ChEMBL document CHEMBL3734692, “Design and synthesis of 2-oxindole based multi-targeted inhibitors of PDK1/Akt signaling pathway for the treatment of glioblastoma multiforme” (Eur J Med Chem, 2015).

As a reminder, the inhibition is the drop in the measured response relative to a control, in per cent. For orientation: GI50 means the concentration at which growth is held to half of that of the control. Broadly, the IC50 is the midpoint of a concentration-inhibition curve.

Sequence of Serine/threonine-protein kinase Chk1 (O14757 whole entry): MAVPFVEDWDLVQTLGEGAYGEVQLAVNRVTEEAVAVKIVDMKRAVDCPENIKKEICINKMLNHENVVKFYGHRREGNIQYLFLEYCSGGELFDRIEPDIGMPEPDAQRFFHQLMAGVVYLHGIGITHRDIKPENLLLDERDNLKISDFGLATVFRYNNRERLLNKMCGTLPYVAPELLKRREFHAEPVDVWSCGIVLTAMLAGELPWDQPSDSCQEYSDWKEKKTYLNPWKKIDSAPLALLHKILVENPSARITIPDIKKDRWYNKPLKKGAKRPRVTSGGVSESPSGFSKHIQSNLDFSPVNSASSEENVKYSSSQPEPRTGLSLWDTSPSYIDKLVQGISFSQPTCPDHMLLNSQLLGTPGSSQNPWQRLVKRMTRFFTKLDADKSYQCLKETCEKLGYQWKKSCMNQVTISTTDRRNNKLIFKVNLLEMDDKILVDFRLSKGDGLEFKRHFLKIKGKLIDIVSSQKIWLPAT
Sequence of Glycogen synthase kinase-3 beta (P49841 whole entry, looked up): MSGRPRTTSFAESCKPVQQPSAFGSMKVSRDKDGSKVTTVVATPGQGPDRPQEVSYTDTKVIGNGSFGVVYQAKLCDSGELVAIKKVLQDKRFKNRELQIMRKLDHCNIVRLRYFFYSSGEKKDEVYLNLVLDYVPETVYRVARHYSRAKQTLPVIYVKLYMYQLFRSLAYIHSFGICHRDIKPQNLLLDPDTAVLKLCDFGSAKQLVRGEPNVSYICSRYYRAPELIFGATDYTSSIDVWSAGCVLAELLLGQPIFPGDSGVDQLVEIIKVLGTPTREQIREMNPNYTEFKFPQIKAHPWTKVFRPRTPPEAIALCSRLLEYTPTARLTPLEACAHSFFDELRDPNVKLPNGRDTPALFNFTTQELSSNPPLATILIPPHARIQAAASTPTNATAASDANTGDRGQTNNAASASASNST
Sequence of Serine/threonine-protein kinase PAK 6 (Homo sapiens) (Q9NQU5 whole entry, looked up): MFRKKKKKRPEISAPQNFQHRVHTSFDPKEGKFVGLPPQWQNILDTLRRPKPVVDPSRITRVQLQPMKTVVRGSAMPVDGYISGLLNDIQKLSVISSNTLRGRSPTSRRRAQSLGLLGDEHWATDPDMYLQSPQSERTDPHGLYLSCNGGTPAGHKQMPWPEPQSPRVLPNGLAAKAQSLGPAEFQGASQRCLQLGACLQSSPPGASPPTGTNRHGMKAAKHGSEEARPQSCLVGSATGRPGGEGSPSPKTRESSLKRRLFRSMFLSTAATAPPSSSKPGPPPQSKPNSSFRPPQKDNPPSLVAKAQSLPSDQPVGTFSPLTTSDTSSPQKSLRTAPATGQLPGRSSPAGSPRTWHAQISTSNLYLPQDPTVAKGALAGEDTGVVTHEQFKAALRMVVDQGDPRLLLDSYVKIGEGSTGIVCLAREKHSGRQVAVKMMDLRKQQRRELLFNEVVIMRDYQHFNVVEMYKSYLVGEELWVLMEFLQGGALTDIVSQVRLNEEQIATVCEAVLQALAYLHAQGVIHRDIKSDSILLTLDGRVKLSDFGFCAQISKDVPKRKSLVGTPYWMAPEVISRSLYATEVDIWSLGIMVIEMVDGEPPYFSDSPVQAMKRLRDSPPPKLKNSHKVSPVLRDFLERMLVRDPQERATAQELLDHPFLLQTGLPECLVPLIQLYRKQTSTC
Sequence of Casein kinase II subunit alpha' (Homo sapiens) (P19784 whole entry, looked up): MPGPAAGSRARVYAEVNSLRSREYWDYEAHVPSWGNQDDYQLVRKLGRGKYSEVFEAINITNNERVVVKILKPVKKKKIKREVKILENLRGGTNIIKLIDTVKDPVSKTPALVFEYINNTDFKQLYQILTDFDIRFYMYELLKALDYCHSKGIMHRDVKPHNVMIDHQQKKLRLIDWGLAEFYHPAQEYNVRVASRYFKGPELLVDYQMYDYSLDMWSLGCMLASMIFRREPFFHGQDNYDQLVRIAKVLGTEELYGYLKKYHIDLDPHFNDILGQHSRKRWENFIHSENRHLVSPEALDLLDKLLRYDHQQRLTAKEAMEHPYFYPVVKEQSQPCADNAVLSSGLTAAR

On to `COc1cc2c(cc1OC)CN(CC(=O)Nc1ccc3c(c1)/C(=C/c1cnc[nH]1)C(=O)N3)CC2`, for which the inhibition is 2% in assay [1], 70% in assay [2], -4% in assay [4] and 11% in assay [6]. Also, in assay [3], the GI50 was 12.9 µM. The IC50 in assay [5] was determined as 0.274 µM.
